The structures appear in SMILES notation. Like-named read-outs stand apart in the source and are kept apart here. Some results are limits rather than exact numbers.

From US12558428B2, “Heterobifunctional compounds and their use in treating disease” (Halda Therapeutics OpCo, Inc., priority 2024, dated 2026) come the findings set out here.

What all share (type): cell-based
The test system of assay [1] is T-Rex 293 cells having increased expression of estrogen receptor alpha protein. In words: Cellular growth inhibition assay, T-Rex 293 cells, (+) doxycycline. The settings on record: T-REx-293, 72 h, T-Rex 293 cells with doxycycline (increased ERα expression), 72 hours, CellTiter-Glo, read-out: (+) Dox GI50. The gist of the method:
(§1)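 Cells of an inducible ERα-expressing T-Rex 293 clone are seeded in charcoal-dextran FBS medium with or without 3 ng/mL doxycycline, then treated after 24 h with compound dilutions (0.5% DMSO) for 72 h. Growth inhibition is measured by CellTiter-Glo luminescence and expressed as GI50.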

The subject of assay [2] is T-Rex 293 cells lacking increased expression of estrogen receptor alpha protein. As to the kind of experiment: Cellular growth inhibition assay, T-Rex 293 cells, (−) doxycycline. The settings on record: T-REx-293, 72 h, T-Rex 293 cells without doxycycline (lacking increased ERα expression), 72 hours, CellTiter-Glo, read-out: (−) Dox GI50. The gist of the method: as §1
A general note: ATP-based viability assays read luminescence as a measure of living cells.

In assay [3] the test system is MCF7 cells (ECACC #86012803). As to the kind of experiment: Cellular growth inhibition assay, MCF7 cells purchased from ECACC. Conditions: Homo sapiens, 144 h; MCF7 cells purchased from ECACC (#86012803); six days treatment; CellTiter-Glo 2.0 viability. On the procedure: Exemplary compounds were tested for the ability to inhibit the proliferation of MCF7 cells.
MCF7 cells (ATCC #HTB-22 or ECACC #86012803) were cultured in RPMI 1640 medium supplemented with 10% heat-inactivated fetal bovine serum, 1% pen-strep, and 0.2 U/ml insulin. Cells were seeded in 25 μL of RPMI 1640 medium supplemented with 10% heat-inactivated fetal bovine serum, 1% pen-strep, 0.2 U/ml insulin in poly-D-lysine treated, black clear-bottom 384-well plates at 225 cells/well for MCF7 cells purchased from ECACC or 1,500 cells/well for MCF7 cells purchased from ATCC. Following seeding, plates were spun at 300×g for 30 seconds and cultured at 37° C. with 5% CO2 in a humidified tissue culture incubator.
At 24 hours after seeding, compounds were titrated in 100% DMSO and diluted in RPMI 1640 medium supplemented with 10% heat-inactivate fetal bovine serum, 1% pen-strep, and 0.2 U/ml insulin. A 25 μL aliquot of the compound/media mixture was added to cells, bringing the total volume in each well to 50 μL. An equal volume of DMSO without compound was used as a negative control. After treatment, plates were spun at 300×g for 30 seconds, then cultured at 37° C. with 5% CO2 for six days in a humidified tissue culture incubator.
On Day 6 of treatment, cell viability was quantified with CellTiter-Glo 2.0 reagent (Promega). Plates were equilibrated to room temperature for 30 minutes, then 25 μL of CellTiter-Glo 2.0 reagent was added to cells, bringing the total volume in each well to 75 μL. After reagent was added, plates were mixed on a shaker for two minutes at 500 rpm and then incubated at room temperature for 10 minutes. Following incubation, plates were spun at 3,000×g for 30 seconds, sealed with an optical adhesive cover, and luminescence readings were measured with an EnVision Plate Reader.
Data was normalized to 0 luminescence for baseline. A four-parameter, non-linear regression curve fit was applied to dose-response data in GraphPad Prism data analysis software to determine the half maximal growth inhibitory concentration (GI50) for each compound.

The subject of assay [4] is MCF7 cells (ATCC #HTB-22). As to the kind of experiment: Cellular growth inhibition assay, MCF7 cells purchased from ATCC. The settings on record: Homo sapiens, MCF7, 144 h, Table 8-A; MCF7 cells purchased from ATCC; six days; CellTiter-Glo; read-out: GI50. The essentials:
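GI50 values come from a four-parameter fit of CellTiter-Glo 2.0 luminescence after six days of compound exposure at 37° C. Seeding density depended on the source: 225 cells/well for ECACC MCF7, 1,500 for ATCC. Medium was RPMI 1640 with 10% FBS and 0.2 U/ml insulin.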

Broadly, the GI50 is the concentration giving 50% growth inhibition. Consider `COc1cc(N2CCN(CC3(O)CCN(c4ccc(C5=N[C@@H](C)c6nnc(C)n6-c6sc(C)c(C)c65)cc4)CC3)CC2)ccc1[C@H]1c2ccc(O)cc2CC[C@H]1c1ccc(C(F)(F)F)cc1` [III-348], for which the GI50 in assay [1] (Table 7-B), in assay [2] (Table 7-B) and in assay [3] was 500 to 2500 nM in each case.
For the compound `COc1cc(N2CCN(CC3(O)CCN(c4ccc(C5=N[C@@H](C)c6nnc(C)n6-c6sc(C)c(C)c65)cc4)CC3)CC2)ccc1[C@@H]1c2ccc(O)cc2CC[C@@H]1c1ccc(C(F)(F)F)cc1` [III-349], the values for the GI50 in assay [1] (Table 7-B), in assay [2] (Table 7-B) and in assay [3] were under 50 nM, 500 to 2500 nM and under 50 nM, respectively.
Regarding `COc1cc(N2CCN(CC3CCN(c4ccc(C5=N[C@@H](C)c6nnc(C)n6-c6sc(C)c(C)c65)c(F)c4)CC3)CC2)ccc1[C@H]1c2ccc(O)cc2CC[C@H]1c1ccc(C(F)(F)F)cc1` [III-350], the GI50 is over 2500 nM in assay [1] (Table 7-B), over 2500 nM in assay [2] (Table 7-B) and 50 to 500 nM in assay [3].
Consider `COc1cc(N2CCN(CC3CCN(c4ccc(C5=N[C@@H](C)c6nnc(C)n6-c6sc(C)c(C)c65)c(F)c4)CC3)CC2)ccc1[C@@H]1c2ccc(O)cc2CC[C@@H]1c1ccc(C(F)(F)F)cc1` [III-351], for which the GI50 was under 50 nM in assay [1] (Table 7-B), over 2500 nM in assay [2] (Table 7-B) and under 50 nM in assay [3].
As to `COc1cc(N2CCC(O)(CN3CCN(c4ccc([C@H]5c6ccc(O)cc6CC[C@@H]5c5ccc(F)cc5)cc4F)CC3)CC2)ccc1C1=N[C@@H](C)c2nnc(C)n2-c2sc(C)c(C)c21` [III-352], the GI50 in assay [1] (Table 7-B) is under 50 nM; in assay [2] (Table 7-B), 500 to 2500 nM; in assay [3] it was under 50 nM.
Consider `COc1cc(N2CCC(O)(CN3CCN(c4ccc([C@H]5c6ccc(O)cc6CC[C@H]5c5ccc(F)cc5)cc4F)CC3)CC2)ccc1C1=N[C@@H](C)c2nnc(C)n2-c2sc(C)c(C)c21` [III-353], for which the GI50 in assay [1] (Table 7-B) lay within 50 to 500 nM; in assay [2] (Table 7-B), 500 to 2500 nM; in assay [3], 50 to 500 nM.
Turning to `COc1cc(N2CCN(CC3(O)CCN(c4ccc(C5=N[C@@H](C)c6nnc(C)n6-c6sc(C)c(C)c65)c(F)c4)CC3)CC2)ccc1[C@H]1c2ccc(O)cc2CC[C@H]1c1ccc(C(F)(F)F)cc1` [III-354], the GI50 in assay [1] (Table 7-B) lay in the range of 50 to 500 nM; in assay [2] (Table 7-B), 500 to 2500 nM; in assay [3] it was 50 to 500 nM.
Regarding `COc1cc(N2CCN(CC3(O)CCN(c4ccc(C5=N[C@@H](C)c6nnc(C)n6-c6sc(C)c(C)c65)c(F)c4)CC3)CC2)ccc1[C@@H]1c2ccc(O)cc2CC[C@@H]1c1ccc(C(F)(F)F)cc1` [III-355], the GI50 in assay [1] (Table 7-B) is under 50 nM; in assay [2] (Table 7-B), 500 to 2500 nM; in assay [3], under 50 nM.
As to `COc1cc(N2CCC(O)(CN3CCN(c4cc(F)c([C@@H]5c6ccc(O)cc6CC[C@@H]5c5ccccc5)cc4F)CC3)CC2)ccc1C1=N[C@@H](C)c2nnc(C)n2-c2sc(C)c(C)c21` [III-356], the GI50 in assay [1] (Table 7-B) was under 50 nM; in assay [2] (Table 7-B), 500 to 2500 nM; in assay [3] it was 50 to 500 nM.
As to `COc1cc(N2CCC(O)(CN3CCN(c4cc(F)c([C@H]5c6ccc(O)cc6CC[C@H]5c5ccccc5)cc4F)CC3)CC2)ccc1C1=N[C@@H](C)c2nnc(C)n2-c2sc(C)c(C)c21` [III-357], the results for the GI50 in assay [1] (Table 7-B), in assay [2] (Table 7-B) and in assay [3] were 50 to 500 nM, 500 to 2500 nM and 50 to 500 nM, respectively.
On to `CC1=C(c2c(F)cc(F)cc2F)C(c2ccc(N3CCN(CC4(O)CCN(c5ccc(C6=N[C@@H](C)c7nnc(C)n7-c7sc(C)c(C)c76)cc5)CC4)CC3)cc2)Oc2ccc(O)cc21` (stereo partly drawn) [V-28], for which the values for the GI50 in assay [1] (Table 7-A), in assay [2] (Table 7-A) and in assay [4] were under 50 nM, 50 to 500 nM and under 50 nM, respectively.
Turning to `CC1=C(c2c(F)cc(F)cc2F)[C@@H](c2ccc(OCC(=O)N3CCCC4(CCN(c5ccc(C6=N[C@@H](C)c7nnc(C)n7-c7sc(C)c(C)c76)cc5)C4)C3)cc2)Oc2ccc(O)cc21` (stereo partly drawn) [V-29], the GI50 in assay [1] (Table 7-A), in assay [2] (Table 7-A) and in assay [4] was 50 to 500 nM throughout.
As for `CC1=C(c2c(F)cc(F)cc2F)[C@H](c2ccc(OCC(=O)N3CCCC4(CCN(c5ccc(C6=N[C@@H](C)c7nnc(C)n7-c7sc(C)c(C)c76)cc5)C4)C3)cc2)Oc2ccc(O)cc21` (stereo partly drawn) [V-30], the GI50 in assay [1] (Table 7-A), in assay [2] (Table 7-A) and in assay [4] was 50 to 500 nM in each case.
Regarding `CC1=C(c2c(F)cc(F)cc2F)[C@H](c2ccc(C3CCN(CC4(O)CCN(c5ccc(C6=N[C@@H](C)c7nnc(C)n7-c7sc(C)c(C)c76)cc5)CC4)CC3)cc2)Oc2ccc(O)cc21` [V-31], the GI50 was under 50 nM in assay [1] (Table 7-A), 50 to 500 nM in assay [2] (Table 7-A) and 50 to 500 nM in assay [4].
`CC1=C(c2c(F)cc(F)cc2F)[C@@H](c2ccc(C3CCN(CC4(O)CCN(c5ccc(C6=N[C@@H](C)c7nnc(C)n7-c7sc(C)c(C)c76)cc5)CC4)CC3)cc2)Oc2ccc(O)cc21` [V-32]: the GI50 is under 50 nM in assay [1] (Table 7-A), 500 to 2500 nM in assay [2] (Table 7-A) and 50 to 500 nM in assay [4].
Consider `CC1=C(c2c(F)cc(F)cc2F)[C@H](c2ccc(OCC(=O)N3CCCC4(CCN(c5ccc(C6=N[C@@H](Cc7ncco7)c7nnc(C)n7-c7sc(C)c(C)c76)cc5)C4)C3)cc2)Oc2ccc(O)cc21` (stereo partly drawn) [V-33], for which the figures for the GI50 in assay [1] (Table 7-A), in assay [2] (Table 7-A) and in assay [4] were under 50 nM, 50 to 500 nM and 50 to 500 nM, respectively.
On to `CC1=C(c2c(F)cc(F)cc2F)[C@@H](c2ccc(OCC(=O)N3CCCC4(CCN(c5ccc(C6=N[C@@H](Cc7ncco7)c7nnc(C)n7-c7sc(C)c(C)c76)cc5)C4)C3)cc2)Oc2ccc(O)cc21` (stereo partly drawn) [V-34], for which the GI50 in assay [1] (Table 7-A), in assay [2] (Table 7-A) and in assay [4] was 50 to 500 nM in each case.
Regarding `CC1=C(c2c(F)cc(F)cc2F)[C@H](c2ccc(N3CC(CN4CCN(CC5CN(c6ccc(C7=N[C@@H](C)c8nnc(C)n8-c8sc(C)c(C)c87)cc6)C5)CC4)C3)cc2)Oc2ccc(O)cc21` [V-35], the GI50 in assay [1] (Table 7-A) was under 50 nM; in assay [2] (Table 7-A), 50 to 500 nM; in assay [4] it was under 50 nM.
With `CC1=C(c2c(F)cc(F)cc2F)[C@@H](c2ccc(N3CC(CN4CCN(CC5CN(c6ccc(C7=N[C@@H](C)c8nnc(C)n8-c8sc(C)c(C)c87)cc6)C5)CC4)C3)cc2)Oc2ccc(O)cc21` [V-36], the GI50 was under 50 nM in assay [1] (Table 7-A), 500 to 2500 nM in assay [2] (Table 7-A) and 50 to 500 nM in assay [4].
Take `Cc1cc(N2CCC(O)(CN3CCN(c4cc(F)c([C@@H]5c6ccc(O)cc6CC[C@@H]5c5ccccc5)cc4F)CC3)CC2)ccc1Oc1ccc(C(C)(C)O)cc1-c1cn(C)c(=O)c2[nH]ccc12` [V-37]: the GI50 in assay [1] (Table 7-B) is under 50 nM; in assay [2] (Table 7-B) it was 500 to 2500 nM; in assay [4] it was under 50 nM.
With `Cc1cc(N2CCC(O)(CN3CCN(c4cc(F)c([C@H]5c6ccc(O)cc6CC[C@H]5c5ccccc5)cc4F)CC3)CC2)ccc1Oc1ccc(C(C)(C)O)cc1-c1cn(C)c(=O)c2[nH]ccc12` [V-38], the GI50 in assay [1] (Table 7-B), in assay [2] (Table 7-B) and in assay [4] was 50 to 500 nM each time.
For `Cc1cc(N2CCC(O)(CN3CCN(c4ccc([C@@H]5c6ccc(O)cc6CC[C@@H]5c5ccc(F)cc5F)cc4)CC3)CC2)ccc1Oc1ccc(C(C)(C)O)cc1-c1cn(C)c(=O)c2[nH]ccc12` [V-39], the GI50 in assay [1] (Table 7-B), in assay [2] (Table 7-B) and in assay [4] was 50 to 500 nM throughout.
`Cc1cc(N2CCC(O)(CN3CCN(c4ccc([C@H]5c6ccc(O)cc6CC[C@H]5c5ccc(F)cc5F)cc4)CC3)CC2)ccc1Oc1ccc(C(C)(C)O)cc1-c1cn(C)c(=O)c2[nH]ccc12` [V-40]: the GI50 in assay [1] (Table 7-B) is under 50 nM; in assay [2] (Table 7-B), 500 to 2500 nM; in assay [4], under 50 nM.
